Measurements as given in publication PMC10916382, “Repurposing screen identifies novel candidates for broad-spectrum coronavirus antivirals and druggable host targets” (Antimicrobial Agents and Chemotherapy, 2024).
Structures can show the parent of a compound that is named as a salt. Where two headings read alike, the source gives them in different places.

Assays:
[1] = test system: HCoV-229E; experiment: microbe, parasite or virus in culture; assay type: cell-based, Homo sapiens sapiens; details: Human coronavirus 229E
[2] = test system: Huh-7.5/F-Luc cells
[3] = in vitro; details: human
[4] = test system: SARS-CoV-2
[5] = in vitro
[6] = Huh7.5, read-out: IC50 (µM), HCoV 229E
[7] = Huh-7.5/F-Luc cells, maximum tested dose 5 µM
[8] = Calu-3 cells, immunofluorescence imaging
[9] = Anti-SARS-CoV-2 screening on Calu-3 cells: viability [% of control], Calu-3 cells
[10] = Huh-7.5 cells, dose series, maximum tested dose 5 µM

Compound	CC50 (µM) [2, 7]	viability at 5 µM [3]	Anti-SARS-CoV-2 screening on Calu-3 cells: intracellular SARS-CoV-2 infection measured via immunofluorescence imaging [% of control] [4, 8]	viability at 48 h, 5 µM [5]	viability [5, 9]	IC50 ([1]; Huh7.5)	CC50 (µM) [2, 10]	other results
CC(C)Oc1ccc(-c2nc(-c3cccc4c3CC[C@@H]4NCCO)no2)cc1C#N [CBR-001-211-015-5]	greater than maximum tested dose	129%	–	–	–	–	–	IC50 [1, 6]: 1.17 µM
CCNCc1cc(Nc2ccnc3cc(Cl)ccc23)ccc1O [CBR-001-843-604-9]	greater than maximum tested dose	131%	–	–	–	–	–	IC50 [1, 6]: 1.43 µM
OCCN1CCN(CCC=C2c3ccccc3Sc3ccc(C(F)(F)F)cc32)CC1 [RFM-000-079-3]	greater than maximum tested dose	145%	104.52 % of control	105%	–	–	–	IC50 [1, 6]: 1.73 µM
CC(=O)N(C)C1(c2ccccc2)CCN(CCC[C@]2(c3ccc(Cl)c(Cl)c3)CCCN(C(=O)c3ccccc3)C2)CC1 [RFM-000-080-6]	greater than maximum tested dose	131%	106.27 % of control	–	113%	–	–	IC50 [1, 6]: 1.5 µM
C[C@@H]1CCCN1CCc1cc2cc(-c3ccc(C#N)cc3)ccc2o1 [RFM-000-099-7]	greater than maximum tested dose	152%	114.07 % of control	–	98.3%	–	–	IC50 [1, 6]: 1.39 µM
CNCCC(Oc1cccc2ccccc12)c1cccs1 (stereo not shown) [RFM-000-319-0]	–	143%	–	–	–	–	–	IC50 ([1]; Huh7.5, read-out: IC50 (µM), HCoV 229E, HCoV-229E/R-Luc on Huh-7.5/F-Luc cells, dose series, max. dose 5 µM): 1.44 µM; CC50 (µM) [2]: greater than maximum tested dose; Anti-SARS-CoV-2 screening on Calu-3 cells: intracellular SARS-CoV-2 infection measured via immunofluorescence imaging [% of control] [4]: 109.17 % of control; viability ([5]; Anti-SARS-CoV-2 screening on Calu-3 cells: viability [% of control]): 104%
CNc1cc(OC)c(C(=O)N[C@@H]2CCN(Cc3ccccc3)[C@@H]2C)cc1Cl [RFM-000-360-1]	greater than maximum tested dose	134%	103.45 % of control	–	–	–	–	IC50 [1, 6]: 2.36 µM; viability [5]: 109%
OCCN1CCN(CCCN2c3ccccc3Sc3ccc(Cl)cc32)CC1 [RFM-000-391-8]	greater than maximum tested dose	181%	116.90 % of control	110%	–	–	–	IC50 [1, 6]: 1.84 µM
CC(=O)[C@]1(O)Cc2c(O)c3c(c(O)c2[C@@H](O[C@H]2C[C@H](N)[C@H](O)[C@H](C)O2)C1)C(=O)c1ccccc1C3=O [RFM-000-458-0]	–	103%	–	15%	–	–	–	IC50 [1, 6]: 1.55 µM; CC50 (µM) [2]: greater than maximum tested dose; Anti-SARS-CoV-2 screening on Calu-3 cells: intracellular SARS-CoV-2 infection measured via immunofluorescence imaging [% of control] [4]: 139.58 % of control
CC(Cc1ccccc1)NCCC(c1ccccc1)c1ccccc1 (stereo not shown) [RFM-000-835-5]	greater than maximum tested dose	140%	102.68 % of control	102%	–	–	–	IC50 [1, 6]: 1.53 µM
OCCN1CCN(CCCN2c3ccccc3Sc3ccc(C(F)(F)F)cc32)CC1 [RFM-001-668-2]	greater than maximum tested dose	154%	116.92 % of control	–	99%	–	–	–
Cc1c(-c2ccc(O)cc2)n(Cc2ccc(OCCN3CCCCCC3)cc2)c2ccc(O)cc12 [RFM-002-868-2]	greater than maximum tested dose	165%	103.07 % of control	–	–	–	–	viability at 48 h, 5 µM [5, 9]: 96.9%
COc1ccc(C(C)C)cc1CN[C@@H]1C2CCN(CC2)[C@H]1C(c1ccccc1)c1ccccc1 [RFM-011-107-9]	–	–	82.87 % of control	83.9%	–	1.1 µM	greater than maximum tested dose	–
COc1ccc(C(C)C)cc1CNC1C2CCN(CC2)C1C(c1ccccc1)c1ccccc1 (stereo not shown) [RFM-011-108-0]	–	–	86.21 % of control	96.4%	–	0.85 µM	greater than maximum tested dose	–
CNCc1ccc(OC)c([C@@]2(N3CCC[C@H]3c3ncco3)C(=O)N(S(=O)(=O)c3ccc(OC)cc3)c3ccc(Cl)cc32)c1 [RFM-011-199-9]	–	–	113.08 % of control	–	95.4%	0.8 µM	greater than maximum tested dose	–
CNCc1ccc(OC)c([C@]2(N3CCC[C@H]3c3ncco3)C(=O)N(S(=O)(=O)c3ccc(OC)cc3)c3ccc(Cl)cc32)c1 [RFM-011-200-5]	–	–	106.10 % of control	–	117%	0.7 µM	greater than maximum tested dose	–

Compound	CC50 (µM) [2, 7]	viability at 5 µM [3]	Anti-SARS-CoV-2 screening on Calu-3 cells: intracellular SARS-CoV-2 infection measured via immunofluorescence imaging [% of control] [4, 8]	viability at 48 h, 5 µM [5]	viability [5, 9]	IC50 ([1]; Huh7.5)	CC50 (µM) [2, 10]	other results
CC(C)(Cc1ccc2ccccc2c1)NC[C@@H](O)COc1cccc(Cl)c1C#N [SB 262470]	–	–	110.66 % of control	–	106%	0.96 µM	greater than maximum tested dose	–
CN1CCC(CNc2ccc3ncc(-c4cccc(OC(F)(F)F)c4)n3n2)CC1 [SGI-1776]	–	–	100.18 % of control	–	94.5%	0.56 µM	greater than maximum tested dose	–
CC(C)(C)c1cnc(CSc2cnc(NC(=O)C3CCNCC3)s2)o1 [SNS-032]	–	–	132.10 % of control	–	39.8%	0.21 µM	greater than maximum tested dose	–
CN(C)CCOc1ccc(/C(=C(/CCCl)c2ccccc2)c2ccccc2)cc1 [TOREMIFENE CITRATE]	–	–	114.97 % of control	–	–	1.02 µM	greater than maximum tested dose	viability [5]: 95.3%
CCSc1ccc2c(c1)N(CCCN1CCN(C)CC1)c1ccccc1S2 [Thiethylperazine dimaleate]	–	–	110.38 % of control	–	95.3%	0.93 µM	greater than maximum tested dose	–
Cc1ccc(Sc2ccccc2N2CCNCC2)c(C)c1 [Vortioxetine hydrobromide]	–	–	101.64 % of control	–	82.8%	0.99 µM	greater than maximum tested dose	–
CNCc1ccc(C)c(NC(=O)c2ccc(Nc3nc(-c4ccccc4)c4ccccc4n3)cc2)c1 [XL-139]	–	–	109.44 % of control	–	107%	0.62 µM	greater than maximum tested dose	–
OCCN1CCN(CC/C=C2/c3ccccc3Sc3ccc(Cl)cc32)CC1 [ZUCLOPENTHIXOL]	–	–	108.85 % of control	110%	–	1.13 µM	greater than maximum tested dose	–
CCOc1cc2c(c(F)c1OCC)C(=N)N(CC(=O)c1cc(N3CCOCC3)c(OC)c(C(C)(C)C)c1)C2 [atopaxar]	–	–	107.54 % of control	–	81.4%	0.49 µM	greater than maximum tested dose	–
COCC(=O)O[C@]1(CCN(C)CCCc2nc3ccccc3[nH]2)CCc2cc(F)ccc2[C@@H]1C(C)C [mibefradil dihydrochloride]	–	–	108.00 % of control	–	98.3%	1.03 µM	greater than maximum tested dose	–
COc1ccc2c(c1)CCC(c1ccccc1)=C2c1ccc(OCCN2CCCC2)cc1 [nafoxidine]	–	–	104.91 % of control	110%	–	0.37 µM	greater than maximum tested dose	–
CC(C)(C)NC[C@H](O)COc1ccccc1C1CCCC1 [penbutolol]	–	–	102.38 % of control	101%	–	1.05 µM	greater than maximum tested dose	–
COc1cccc2c1C(=O)c1c(O)c3c(c(O)c1C2=O)C[C@@](O)(C(=O)CO)C[C@@H]3O[C@H]1C[C@H](N)[C@H](O[C@@H]2CCCCO2)[C@H](C)O1 [pirarubicin]	–	–	112.83 % of control	–	56.9%	0.89 µM	greater than maximum tested dose	–
O=C1NCCN1CCN1CCC(c2cn(-c3ccc(F)cc3)c3ccc(Cl)cc23)CC1 [sertindole]	–	–	107.90 % of control	106%	–	0.96 µM	greater than maximum tested dose	–
CN(C)CCOC1=Cc2ccccc2Sc2ccc(Cl)cc21 [zotepine]	–	–	107.66 % of control	98.1%	–	1.04 µM	greater than maximum tested dose	–
